Assay results: US6117888A, “Thrombin inhibitors” (Merck & Co., Inc., priority 1999, dated 2000)
Read-outs that look alike come from different tables or passages of the source.

Biological target: human α-thrombin (Homo sapiens, UniProt P00734)
Experiment: In vitro assay for determining proteinase inhibition, human α-thrombin
Type: biochemical
Description: The assays were carried out at 25° C. in 0.05 M TRIS buffer pH 7.4, 0.15 M NaCl, 0.1% PEG. Trypsin assays also contained 1 mM CaCl2.
Concentrations of stock solutions of Z-GPR-afc were determined from measurements of absorbance at 380 nm of the 7-amino-4-trifluoromethyl coumarin produced upon complete hydrolysis of an aliquot of the stock solution by thrombin.
Times required to achieve equilibration between enzyme and inhibitor were determined in control experiments. Initial velocities of product formation in the absence (Vo) or presence of inhibitor (Vi) were measured. Assuming competitive inhibition, and that unity is negligible compared Km /[S], […] (where [S], [I], and e respectively represent the total concentrations, of substrate, inhibitor and enzyme), the equilibrium constant (Ki) for dissociation of the inhibitor from the enzyme can be obtained from the dependence of Vo /Vi on [I] shown in equation 1.

[1] = thrombin, 25° C., 0.05 M TRIS buffer pH 7.4, 0.15 M NaCl, 0.1% PEG, read-out: Inhibitory activity, Ki

SMILES | Ki [nM] | Ki [1] [nM]
Cc1nc(N)ccc1CNC(=O)Cn1c(C)cc(S(=O)(=O)N2CCCC2)c(N)c1=O |  | < 5
Cc1nc(N)ccc1CNC(=O)Cn1c(C)cc(S(=O)(=O)NCC2CCC2)c(N)c1=O | < 5 | 

Continued, values first:

Ki [nM] | Ki [1] [nM] | SMILES
< 5 |  | Cc1nc(N)ccc1CNC(=O)Cn1c(C)cc2c(c1=O)NCN(CC1CC1)S2(=O)=O
 | > 5 | Cc1nc(N)ccc1CNC(=O)Cn1c(C)cc2c(c1=O)NCC(c1ccccc1)S2(=O)=O (centres unmarked)
 | > 5 | Cc1nc(N)ccc1CNC(=O)Cn1c(C)cc2c(c1=O)NCCS2(=O)=O
